Results from US20220304957A1, “ANTI-CANCER COMPOSITIONS AND METHODS OF USE” (Board of Supervisors of Louisiana State University and …, priority 2019, published 2022).

Experiments:
[1] = system: GL-261-luc mouse glioblastoma cell line; experiment: Cell death, trypan blue, GL-261; settings: 5-50 μM, 96 h
Description: (§1) The percentage of cell death was calculated at 96-hour time point for all experimental conditions.

[2] = system: U-87MG human glioblastoma cell line; experiment: Cell death, trypan blue, U-87MG; settings: 5-50 μM, 96 h
Description: as §1

[3] = PP1 tissue distribution after oral administration (HPLC); assay type: in vivo, C57BL/6 mice
Description: Panel A: PP1 accumulation in different tissues following oral administration of PP1 (25 mg/kg). C57BL/6 mice were treated daily for 14 days, and the levels of PP1 in the blood, liver, spleen, kidney, heart, brain and in brain tumors, were evaluated by HPLC, as previously described. Data represent average values with standard deviation (n=3). Panel B: Body weight of C57BL/6 mice treated with PP1. Mice were treated with the PP1 at doses ranging from 25 to 75 mg/kg/day administered by oral gavage. Following 7 and 14 days of daily drug administration both control (DMSO-treated) and experimental (PP1-treated) mice were weighted. Data represent average values with standard deviation (at least three mice per group were included). In Panels A and B, tumor free and tumor bearing mice were included for the body weight measurement. Panels C, D and E: Intracranial growth of GL-261-Luc cells. C57 black mice, 6-8 weeks of age were anesthetized with 4% isoflurane and secured in a stereotaxic head frame (Harvard Apparatus, Holliston Mass.). GL-261-luc cells (1×10^5 cells in 2 μl; PerkinElmer Inc.) were injected into the brain parenchyma (coordinates: 3 mm anterior to Bregma; 1.5 mm lateral to Sagital suture; 3 mm down from surface) through a burr hole in the skull using a 10 μl Hamilton syringe. Panel C: Mice with large intracranial tumors were selected using bioluminescence imaging with Xenogen IVIS 200 system. Tumor size is expressed as radiance (photons/s/cm2/sr) and was quantified with the Living Image 4.1 software according to the manufacturer's recommendations (Xenogen). Panels D and E: Pathological evaluation of intracranial tumors and tissues. Following 14 days of drug administration (control: DMSO administered daily by oral gavage; PP1 50 mg/kg administered daily by oral gavage) the animals were euthanized, and the following organs were collected: liver, kidneys, spleen, heart, intact brain and intracranial tumors. The tissues were formalin-fixed, paraffin-embedded, and the resulting thin section were stained with hematoxylin and eosin (H&E) for a routine pathological evaluation.
Detection of PP compounds by high performance liquid chromatography (HPLC) —All HPLC data were obtained from the Agilent 1100 apparatus equipped with a line degasser, binary pump (high pressure mixer), autosampler, column thermostat and Diode Array Detector (DAD) (Agilent Technologies, Santa Clara, Calif.). The analytical column 3 μm, 4.6×150 mm (Octyl Silane C8; YMC America, Inc.), solvent A—50 mM acetic acid in water, and solvent B—acetonitrile, with isocratic flow were used to detect and quantify PP compounds in culture media, in cells, tissues and body fluids. The flow rate was set to 1 ml/min, column temperature was 20° C., and the sample volume was 5 μl. DAD wavelength was set to 285 nm. Sample preparation. Blood, cell culture media, cellular and tissue lysates, were deproteinized by adding 150 μl of acetonitrile to 150 μl of sample, mixed well and centrifuged (15 000 g, 5 min). The lysates were sonicated on ice and centrifuged (15 000 g, 5 min). Finally, 150 μl of the supernatant was mixed with the equal volume of acetonitrile, filtered through 0.22 μm centrifuge filter (Sigma) and analyzed by High Performance Liquid Chromatography (HPLC).
Animal studies—All described procedures involving experimental animals were performed in accordance to the IACUC protocol #3444 at LSUHSC, New Orleans. C57BL/6NHsd mice, 11-12 weeks of age (Envigo), were anesthetized with 4% isoflurane and secured in a stereotaxic head frame (Harvard Apparatus, Holliston Mass.). GL-261-luc cells (1×105) (PerkinElmer Inc.) were suspended in PBS and 2 μl aliquots were injected into the brain parenchyma (coordinates: 3 mm anterior to Bregma; 1.5 mm lateral to Sagital suture; 3 mm down from surface) through a burr hole in the skull using a 10 μl Hamilton syringe. […]

[4] = system: LN229 human glioblastoma cell line; experiment: Cell viability (MTT assay), LN229; assay type: cell-based; settings: MTT
[5] = mouse, in vivo; cited from earlier work

In the case of CN(CCO)C(=O)C(C)(C)Oc1ccc(C(=O)c2ccc(Cl)cc2)cc1 [PP1, 2-[4-(4-chlorobenzoyl)phenoxy]-N-(2-hydroxyethyl)-N,2-dimethylpropanamide], the “in vitro cytotoxicity” value [1] is reported as “high in vitro cytotoxicity”, the “in vitro cytotoxicity” value [2] is reported as “high in vitro cytotoxicity” and the concentration at 14 days ([3]; C57BL/6, mouse, brain tumor tissue, po, 25 mg/kg, orally administered, mice, read-out: HPLC-measured concentration in the brain tumor tissues) is reported as 5 to 6 µM. The “accumulation in the liver” value ([3]; oral gavage daily, 14 days) was 10.3 ± 4.3 µM, the “concentration in intracranial tumors” value ([3]; oral gavage daily, 14 days) was 5.8 ± 0.7 µM and the “level in intact brains” value ([3]; oral gavage daily, 14 days) was 4.9 ± 3.4 µM. The “level in the blood” value ([3]; oral gavage daily, 14 days) was 3.05 ± 0.2 µM, the “level in the heart” value ([3]; oral gavage daily, 14 days) was 6.1 ± 2.4 µM and the “level in the spleen” value ([3]; oral gavage daily, 14 days) was 7.6 ± 3.2 µM. For the same molecule, the “accumulation in the kidney” value ([3]; oral gavage daily, 14 days, in µM) was 8.8+/−4.7, the “CV = Cell viability (% of control)” value ([4]; 1 μM) was 98.36±1.61 % of control and the “CV = Cell viability (% of control)” value ([4]; 5 μM) was 70.03±2.04 % of control. For the same molecule, the “CV = Cell viability (% of control)” value ([4]; 10 μM) was 43.67±1.88 % of control, the “brain penetration, concentration” value [5] was 5 µM and the “estimated log BB (from experiment)” value [5] was “zero”.
